These results are taken from ChEMBL document CHEMBL1208738, “Optimization of privileged structures for selective and potent melanocortin subtype-4 receptor ligands” (Bioorg Med Chem Lett, 2010).

The target of data set [1] is T1, Melanocortin receptor 4 (Homo sapiens, UniProt P32245). Nature of the data set: Displacement of [125I]NDP-alpha-MSH from human MC4 receptor expressed in CHO cells. In kind it is cell-based. (In a radioligand displacement assay an active substance lowers the binding of a labelled ligand.)
T1 sequence (P32245 whole entry): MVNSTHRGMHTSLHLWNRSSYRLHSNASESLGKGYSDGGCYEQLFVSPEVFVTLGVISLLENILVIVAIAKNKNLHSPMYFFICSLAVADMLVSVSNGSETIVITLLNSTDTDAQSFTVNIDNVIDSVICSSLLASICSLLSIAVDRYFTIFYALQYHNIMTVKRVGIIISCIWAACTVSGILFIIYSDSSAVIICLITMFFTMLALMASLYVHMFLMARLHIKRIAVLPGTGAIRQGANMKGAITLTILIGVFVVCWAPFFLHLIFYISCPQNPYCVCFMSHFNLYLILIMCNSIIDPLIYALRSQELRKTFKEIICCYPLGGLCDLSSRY
The nature of data set [2]: Half life in Sprague-Dawley rat at 1 mg/kg, iv and 4 mg/kg, po. It counts as ADME, organism-based. The conditions noted are these: in vivo.
Data set [3] in a line: Oral bioavailability in Sprague-Dawley rat at 4 mg/kg. In kind it is ADME, organism-based. To be noted: in vivo.
Data set [4] concerns the target T1, Melanocortin receptor 4. Briefly: Agonist activity at human MC4 receptor expressed in CHO cells assessed as increase of alpha-MSH-induced cAMP accumulation. In kind it is functional, cell-based.
Data set [5] can be described thus: Clearance in Sprague-Dawley rat at 1 mg/kg, iv and 4 mg/kg, po. It counts as ADME, organism-based. To be noted: in vivo.
The nature of data set [6]: Volume of distribution at steady state in Sprague-Dawley rat at 1 mg/kg, iv and 4 mg/kg, po. In kind it is ADME, organism-based. To be noted: in vivo, read-out: Vdss.
For data set [7], the target named is T1, Melanocortin receptor 4. Nature of the data set: Agonist activity at human MC4 receptor expressed in CHO cells assessed as increase of alpha-MSH-induced cAMP accumulation at 10 uM relative to alpha-MSH. It counts as functional, cell-based. (In general: Changes in cAMP serve as a functional read-out for many G protein-coupled receptors.)
In data set [8] the target is T2, Melanocyte-stimulating hormone receptor (Homo sapiens, UniProt Q01726). Nature of the data set: Displacement of [125I]NDP-alpha-MSH from human MC1 receptor expressed in CHO cells. It counts as cell-based.
Target sequence in this assay (Q01726 whole entry): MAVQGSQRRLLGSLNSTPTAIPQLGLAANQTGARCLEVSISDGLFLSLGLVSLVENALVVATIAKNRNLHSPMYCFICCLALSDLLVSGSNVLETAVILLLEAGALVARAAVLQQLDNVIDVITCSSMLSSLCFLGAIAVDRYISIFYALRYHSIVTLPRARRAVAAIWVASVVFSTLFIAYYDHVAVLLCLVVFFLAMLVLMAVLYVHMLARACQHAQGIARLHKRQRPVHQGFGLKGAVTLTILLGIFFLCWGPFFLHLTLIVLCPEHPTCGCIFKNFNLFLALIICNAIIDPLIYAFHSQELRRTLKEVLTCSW
Data set [9] has as its target T3, Melanocortin receptor 3 (Homo sapiens, UniProt P41968). Nature of the data set: Agonist activity at human MC3 receptor expressed in CHO cells assessed as increase of alpha-MSH-induced cAMP accumulation. In kind it is functional, cell-based.
Data set [10] addresses T4, Melanocortin receptor 5 (Homo sapiens, UniProt P33032). Briefly: Agonist activity at human MC5 receptor expressed in CHO cells assessed as increase of alpha-MSH-induced cAMP accumulation. In kind it is functional, cell-based.
In data set [11] the target is T3, Melanocortin receptor 3. Nature of the data set: Displacement of [125I]NDP-alpha-MSH from human MC3 receptor expressed in CHO cells. In kind it is cell-based.
For data set [12], the target named is T4, Melanocortin receptor 5. Nature of the data set: Displacement of [125I]NDP-alpha-MSH from human MC5 receptor expressed in CHO cells. It counts as cell-based.
Data set [13] addresses T2, Melanocyte-stimulating hormone receptor. Nature of the data set: Agonist activity at human MC1 receptor expressed in CHO cells assessed as increase of alpha-MSH-induced cAMP accumulation. It counts as functional, cell-based.
Target sequence in this assay (Q01726 whole entry): as above
Data set [14] has as its target T4, Melanocortin receptor 5. Briefly: Agonist activity at human MC5 receptor expressed in CHO cells assessed as increase of alpha-MSH-induced cAMP accumulation at 10 uM relative to alpha-MSH. It counts as functional, cell-based.
In data set [15] the target is T2, Melanocyte-stimulating hormone receptor. Briefly: Agonist activity at human MC1 receptor expressed in CHO cells assessed as increase of alpha-MSH-induced cAMP accumulation at 10 uM relative to alpha-MSH. In kind it is functional, cell-based.
Target sequence in this assay (Q01726 whole entry, looked up): as the sequence (Q01726 whole entry) above
For data set [16], the target named is T3, Melanocortin receptor 3. Briefly: Agonist activity at human MC3 receptor expressed in CHO cells assessed as increase of alpha-MSH-induced cAMP accumulation at 10 uM relative to alpha-MSH. In kind it is functional, cell-based.
The species named for data set [17] is Homo sapiens. Nature of the data set: Selectivity ratio of IC50 for human MC1 receptor to IC50 for human MC4 receptor.
For data set [18], the species on record is Homo sapiens. Briefly: Selectivity ratio of IC50 for human MC5 receptor to IC50 for human MC4 receptor.
The species named for data set [19] is Homo sapiens. Briefly: Selectivity ratio of EC50 for human MC1 receptor to EC50 for human MC4 receptor.
The species named for data set [20] is Homo sapiens. Nature of the data set: Selectivity ratio of EC50 for human MC5 receptor to EC50 for human MC4 receptor.

T4 sequence (P33032 whole entry): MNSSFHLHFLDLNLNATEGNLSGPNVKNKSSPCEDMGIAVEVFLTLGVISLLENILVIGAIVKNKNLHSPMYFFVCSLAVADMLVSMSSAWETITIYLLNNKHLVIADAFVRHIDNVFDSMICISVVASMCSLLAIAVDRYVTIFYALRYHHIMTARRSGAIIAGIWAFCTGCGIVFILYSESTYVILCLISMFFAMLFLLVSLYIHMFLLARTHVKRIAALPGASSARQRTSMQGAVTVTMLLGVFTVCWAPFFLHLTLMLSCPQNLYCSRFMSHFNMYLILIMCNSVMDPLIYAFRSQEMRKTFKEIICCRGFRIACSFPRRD
T3 sequence (P41968 whole entry): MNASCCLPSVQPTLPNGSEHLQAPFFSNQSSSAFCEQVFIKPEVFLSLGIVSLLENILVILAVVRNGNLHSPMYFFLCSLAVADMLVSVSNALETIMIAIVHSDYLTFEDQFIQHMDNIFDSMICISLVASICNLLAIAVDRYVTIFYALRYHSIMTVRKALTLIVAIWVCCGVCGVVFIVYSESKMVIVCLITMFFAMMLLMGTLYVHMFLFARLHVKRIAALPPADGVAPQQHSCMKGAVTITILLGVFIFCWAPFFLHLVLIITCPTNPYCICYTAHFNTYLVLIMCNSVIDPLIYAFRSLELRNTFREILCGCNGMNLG

The IC50 is the concentration needed to halve the response being measured. The term half-life denotes the time in which the quantity being followed falls by half. A lower half-life goes with fast loss. Usually bioavailability stands for the share of a dose that reaches the circulation, judged against a reference dose that is usually intravenous. What is called EC50 is the midpoint of the concentration-response curve. Turning to `CCN(CC)CC(C1CCCCC1)N1CCN(C(=O)[C@@H]2CN(C(C)(C)C)C[C@H]2c2ccc(F)cc2F)CC1` (some centres undefined), at Melanocortin receptor 4 [1], the 50% inhibitory concentration (IC50) was found to be 260 nM. The same compound gave a half-life in [2] of 34 h. This compound came in with a bioavailability in [3] of 22%. Besides, on Melanocortin receptor 4 [4], the EC50 turned out to be 570 nM. In data set [5], this compound had a clearance of 7.3 mL/min/kg. Further, in data set [6], the Vd was 19 L/kg. In addition, the Activity on Melanocortin receptor 4 [7] was determined as 101%.

Turning to `CC(C)N(CC(C1CCCCC1)N1CCN(C(=O)[C@@H]2CN(C(C)(C)C)C[C@H]2c2ccc(F)cc2F)CC1)C(=O)c1cccnn1` (single isomer, unassigned; diastereomer 1), the IC50 on Melanocortin receptor 4 [1] turned out to be 18 nM; in data set [8], 1900 nM; at Melanocortin receptor 3 [11], 770 nM; on Melanocortin receptor 5 [12], 130 nM. Also, the EC50 on Melanocortin receptor 3 [9] worked out at 90 nM; at Melanocortin receptor 5 [10], 490 nM; at Melanocortin receptor 4 [4], 5.4 nM; in [13] it was 1200 nM.

In turn, `CC(C)N(CC(C1CCCCC1)N1CCN(C(=O)[C@@H]2CN(C(C)(C)C)C[C@H]2c2ccc(F)cc2F)CC1)C(=O)c1ncccn1` (single isomer, unassigned; diastereomer 1) returned an IC50 at Melanocortin receptor 4 [1] of 35 nM. The half-life in [2] is 1.8 h. The compound also had a bioavailability in data set [3] of 26%. Also, the EC50 on Melanocortin receptor 4 [4] is 10 nM. Besides, the clearance in [5] amounted to 31 mL/min/kg. Also, in data set [6], the Vd was found to be 3.8 L/kg.

On to `CC(C)N(CC(C1CCCCC1)N1CCN(C(=O)[C@@H]2CN(C(C)(C)C)C[C@H]2c2ccc(F)cc2F)CC1)C(=O)c1cnn(C(C)C)c1` (single isomer, unassigned; diastereomer 1) [listing 1 of 2 here], for which the half-inhibitory concentration (IC50) on Melanocortin receptor 4 [1] was found to be 18 nM; in data set [8], 730 nM; at Melanocortin receptor 3 [11], 870 nM; at Melanocortin receptor 5 [12], 620 nM. For the same compound, the EC50 on Melanocortin receptor 3 [9] was found to be 79 nM; at Melanocortin receptor 5 [10], 1000 nM; at Melanocortin receptor 4 [4], 6.4 nM; in data set [13], 520 nM.

With `CC(C)N(CC(C1CCCCC1)N1CCN(C(=O)[C@@H]2CN(C(C)(C)C)C[C@H]2c2ccc(F)cc2F)CC1)C(=O)c1cnn(C(C)C)c1` (single isomer, unassigned; diastereomer 1) [listing 2 of 2 here], the Activity at Melanocortin receptor 5 [14] worked out at 62%; in [15], 60%; at Melanocortin receptor 3 [16], 102%; at Melanocortin receptor 4 [7], 106%. Further, the Ratio IC50 in the data set listed under Homo sapiens [17] and in the data set filed under Homo sapiens [18] was 20 throughout. Besides, the Ratio EC50 in the data set listed under Homo sapiens [19] and in the data set listed under Homo sapiens [20] was 20 each time.

Consider `CC(C)N(CC(C1CCCCC1)N1CCN(C(=O)[C@@H]2CN(C(C)(C)C)C[C@H]2c2ccc(F)cc2F)CC1)S(C)(=O)=O` (single isomer, unassigned; diastereomer 2) [listing 1 of 2 here], for which the half-maximal inhibitory concentration (IC50) on Melanocortin receptor 4 [1] came out at 13 nM; in data set [8], 1000 nM; at Melanocortin receptor 3 [11], 3600 nM; at Melanocortin receptor 5 [12] it was 250 nM. The half-life in data set [2] is 2.7 h. For the same compound, the half-maximal effective concentration (EC50) at Melanocortin receptor 3 [9] was 1800 nM; on Melanocortin receptor 5 [10], more than 5000 nM; at Melanocortin receptor 4 [4], 13 nM; in data set [13] it was 540 nM. Further, the bioavailability in data set [3] is 21%. This compound gave a clearance in [5] of 25 mL/min/kg. Moreover, the Vd in data set [6] worked out at 6 L/kg.

With `CC(=O)N(CC(CC(C)C)N1CCN(C(=O)[C@@H]2CN(C(C)(C)C)C[C@H]2c2ccc(F)cc2F)CC1)C(C)C` (single isomer, unassigned; diastereomer 2) [listing 1 of 2 here], the IC50 at Melanocortin receptor 4 [1] is 23 nM; in data set [8] it was 3600 nM; at Melanocortin receptor 3 [11], 4700 nM; on Melanocortin receptor 5 [12] it was 1100 nM. In addition, the EC50 on Melanocortin receptor 3 [9] is 880 nM; on Melanocortin receptor 5 [10] it was more than 5000 nM; on Melanocortin receptor 4 [4], 9.7 nM; in data set [13] it was 560 nM.

For the compound `CC(C)CC(CN(C(C)C)S(C)(=O)=O)N1CCN(C(=O)[C@@H]2CN(C(C)(C)C)C[C@H]2c2ccc(F)cc2F)CC1` (single isomer, unassigned; diastereomer 2) [listing 1 of 2 here], the concentration for half-maximal inhibition (IC50) at Melanocortin receptor 4 [1] was 27 nM; in data set [8] it was 5000 nM; at Melanocortin receptor 3 [11], 4900 nM; at Melanocortin receptor 5 [12], 2800 nM. Moreover, the 50% effective concentration (EC50) on Melanocortin receptor 3 [9] was 2500 nM; at Melanocortin receptor 5 [10], more than 5000 nM; at Melanocortin receptor 4 [4], 19 nM; in [13], more than 5000 nM.

With `CC(=O)N(CC(CC(C)C)N1CCN(C(=O)[C@@H]2CN(C(C)(C)C)C[C@H]2c2ccc(F)cc2F)CC1)C(C)C` (single isomer, unassigned; diastereomer 2) [listing 2 of 2 here], the Activity on Melanocortin receptor 5 [14] was found to be 56%; in data set [15], 77%; on Melanocortin receptor 3 [16], 109%; on Melanocortin receptor 4 [7] it was 113%. The Ratio IC50 in the data set filed under Homo sapiens [17] and in the data set filed under Homo sapiens [18] was 20 each time. Further, the Ratio EC50 in the data set listed under Homo sapiens [19] and in the data set listed under Homo sapiens [20] was 20 each time.

As to `CC(C)CC(CN(C(C)C)S(C)(=O)=O)N1CCN(C(=O)[C@@H]2CN(C(C)(C)C)C[C@H]2c2ccc(F)cc2F)CC1` (single isomer, unassigned; diastereomer 2) [listing 2 of 2 here], the Activity on Melanocortin receptor 5 [14] turned out to be 76%; in data set [15], 62%; at Melanocortin receptor 3 [16], 87%; at Melanocortin receptor 4 [7] it was 100%. Besides, the Ratio IC50 in the data set filed under Homo sapiens [17] and in the data set listed under Homo sapiens [18] was 20 in each case. Besides, the Ratio EC50 in the data set filed under Homo sapiens [19] and in the data set listed under Homo sapiens [20] was 20 each time.

For `CC(C)N(CC(C1CCCCC1)N1CCN(C(=O)[C@@H]2CN(C(C)(C)C)C[C@H]2c2ccc(F)cc2F)CC1)S(C)(=O)=O` (single isomer, unassigned; diastereomer 2) [listing 2 of 2 here], the Activity was 57% at Melanocortin receptor 5 [14], 63% in data set [15], 94% on Melanocortin receptor 3 [16] and 117% on Melanocortin receptor 4 [7]. Moreover, the Ratio IC50 in the data set filed under Homo sapiens [17] and in the data set filed under Homo sapiens [18] was 20 in each case. Besides, the Ratio EC50 in the data set filed under Homo sapiens [19] and in the data set filed under Homo sapiens [20] was 20 throughout.

For `CC(=O)N(CC(C1CCCCC1)N1CCN(C(=O)[C@@H]2CN(C(C)(C)C)C[C@H]2c2ccc(F)cc2F)CC1)C(C)C` (stereo in doubt; 19B) [listing 1 of 2 here], the IC50 on Melanocortin receptor 4 [1] was found to be 28 nM; in data set [8], 1800 nM; on Melanocortin receptor 3 [11], 6500 nM; at Melanocortin receptor 5 [12] it was 660 nM. This compound had a half-life in data set [2] of 2.2 h. Moreover, the EC50 at Melanocortin receptor 3 [9] worked out at 2000 nM; on Melanocortin receptor 5 [10], 2800 nM; at Melanocortin receptor 4 [4], 25 nM; in data set [13], 890 nM. Further, the bioavailability in data set [3] turned out to be 12%. In addition, the clearance in [5] turned out to be 42 mL/min/kg. In addition, the Vd in data set [6] was 6.8 L/kg.

Turning to `CC(=O)N(CC(C1CCCCC1)N1CCN(C(=O)[C@@H]2CN(C(C)(C)C)C[C@H]2c2ccc(F)cc2F)CC1)C(C)C` (stereo in doubt; 19B) [listing 2 of 2 here], the Activity on Melanocortin receptor 5 [14] was determined as 64%; in data set [15], 61%; on Melanocortin receptor 3 [16], 81%; at Melanocortin receptor 4 [7], 123%. In addition, the Ratio IC50 in the data set filed under Homo sapiens [17] and in the data set listed under Homo sapiens [18] was 20 throughout. Besides, the Ratio EC50 in the data set filed under Homo sapiens [19] and in the data set filed under Homo sapiens [20] was 20 each time.
